Article PMC6370995, “Phase I study of PF‐04895162, a Kv7 channel opener, reveals unexpected hepatotoxicity in healthy subjects, but not rats or monkeys: clinical evidence of disrupted bile acid homeostasis” (Pharmacology Research & Perspectives, 2019)

Key:
[1] = test system: cynomolgus monkeys; test: 28-day Nasogastric Intubation Toxicity Study in Cynomolgus Monkeys; format: in vivo, cynomolgus monkey
Experimental: A 28-day nasogastric toxicity study was conducted in cynomolgus monkeys at up to 100 mg/kg/day and a 9-month oral toxicity study with a 3-month interim sacrifice was conducted in cynomolgus monkeys at up to 100 mg/kg/day.

[2] = target: T1, BSEP (Homo sapiens, UniProt O95342); test: BSEP inhibition in vesicles using tritium labeled taurocholic acid; format: biochemical
T1 construct: host or cells: Hi5 insect cell membrane vesicles
Description: […]

[3] = 6-Month Oral Toxicity Study in Sprague Dawley Rats; format: in vivo, rat; settings: Sprague-Dawley, rat, plasma, oral
Experimental: In the longer-term studies Sprague-Dawley rats were administered PF-04895162 once daily for 28 days or 6 months at doses up to 100 mg/kg/day. […] The drug was well absorbed into the systemic circulation of male and female rats following oral administration for 6 months.

[4] = test system: Sprague-Dawley rats; test: Preliminary 7-Day Oral Toxicity Study in Rats; format: in vivo; settings: for gross pathology: animals with impacted feces / microscopic changes in liver (and kidneys): 7 days; for gross pathology: animals with impacted feces: 10 M per group; for microscopic changes in liver (and kidneys): high-dose animals (300 mg/kg); for ALT: once daily for 7 days, 10 to 300 mg/kg/day PO
[5] = test system: Sprague-Dawley rats; test: 7-Day Oral Toxicity Study in Rats (twice daily dosing, GLP); format: in vivo
[6] = as above; format: in vivo; settings: rat, in vivo, Day 7, 400 mg/kg/day
[7] = target: T2, MDR3 (Homo sapiens, UniProt P21439); test: MDR3 inhibition/activation in human hepatocytes (d9-choline to d9-phosphatidylcholine); format: cell-based; settings: 200 μmol/L, N = 3
T2 construct: biotransformation of d 9‐choline to d 9‐phosphatidylcholine in human hepatocytes; host or cells: human hepatocytes
Description: […]

[8] = THLE 72 hour cytotoxicity assay based on ATP depletion; format: cell-based; settings: human, THLE cells, after 72 hours
Description: […]

[9] = 100, 200, and 400 mg/kg/day, 7 days
[10] = twice daily for 7 days, up to 400 mg/kg/day

T1 sequence (O95342 whole entry): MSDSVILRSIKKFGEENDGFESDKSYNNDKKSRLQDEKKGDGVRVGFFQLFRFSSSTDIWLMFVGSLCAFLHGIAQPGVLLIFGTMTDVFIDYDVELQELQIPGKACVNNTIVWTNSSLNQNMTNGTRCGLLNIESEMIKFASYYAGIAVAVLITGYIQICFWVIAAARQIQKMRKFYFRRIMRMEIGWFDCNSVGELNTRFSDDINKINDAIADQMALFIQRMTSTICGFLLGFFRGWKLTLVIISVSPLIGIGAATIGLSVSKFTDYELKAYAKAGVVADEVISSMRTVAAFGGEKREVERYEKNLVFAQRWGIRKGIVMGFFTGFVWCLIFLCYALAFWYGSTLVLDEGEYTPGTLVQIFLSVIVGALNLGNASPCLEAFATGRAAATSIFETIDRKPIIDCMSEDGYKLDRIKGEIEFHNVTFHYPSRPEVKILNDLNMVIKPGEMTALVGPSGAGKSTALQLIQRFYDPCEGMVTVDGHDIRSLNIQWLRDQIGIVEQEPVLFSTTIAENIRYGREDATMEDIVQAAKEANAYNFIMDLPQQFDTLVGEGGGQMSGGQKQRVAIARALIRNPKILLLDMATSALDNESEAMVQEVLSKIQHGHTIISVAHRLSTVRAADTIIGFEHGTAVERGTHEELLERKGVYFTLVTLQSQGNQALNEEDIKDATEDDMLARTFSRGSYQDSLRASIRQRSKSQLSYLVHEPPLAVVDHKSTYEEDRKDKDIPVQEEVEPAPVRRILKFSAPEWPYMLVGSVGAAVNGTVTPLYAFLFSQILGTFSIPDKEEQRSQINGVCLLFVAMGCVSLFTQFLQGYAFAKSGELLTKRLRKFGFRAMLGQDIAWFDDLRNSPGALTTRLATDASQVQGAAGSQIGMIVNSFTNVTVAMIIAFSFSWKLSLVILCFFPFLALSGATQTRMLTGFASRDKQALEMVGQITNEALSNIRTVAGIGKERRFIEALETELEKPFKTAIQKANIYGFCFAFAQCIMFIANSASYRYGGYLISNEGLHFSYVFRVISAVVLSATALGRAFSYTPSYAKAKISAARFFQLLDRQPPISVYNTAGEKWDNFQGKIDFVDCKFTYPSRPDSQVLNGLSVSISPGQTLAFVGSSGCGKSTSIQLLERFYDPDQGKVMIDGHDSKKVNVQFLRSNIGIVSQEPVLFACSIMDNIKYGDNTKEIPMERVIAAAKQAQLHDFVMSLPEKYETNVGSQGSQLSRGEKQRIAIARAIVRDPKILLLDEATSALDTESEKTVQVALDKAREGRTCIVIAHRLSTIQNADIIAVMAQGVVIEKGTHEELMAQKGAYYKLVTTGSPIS
T2 sequence (P21439 whole entry): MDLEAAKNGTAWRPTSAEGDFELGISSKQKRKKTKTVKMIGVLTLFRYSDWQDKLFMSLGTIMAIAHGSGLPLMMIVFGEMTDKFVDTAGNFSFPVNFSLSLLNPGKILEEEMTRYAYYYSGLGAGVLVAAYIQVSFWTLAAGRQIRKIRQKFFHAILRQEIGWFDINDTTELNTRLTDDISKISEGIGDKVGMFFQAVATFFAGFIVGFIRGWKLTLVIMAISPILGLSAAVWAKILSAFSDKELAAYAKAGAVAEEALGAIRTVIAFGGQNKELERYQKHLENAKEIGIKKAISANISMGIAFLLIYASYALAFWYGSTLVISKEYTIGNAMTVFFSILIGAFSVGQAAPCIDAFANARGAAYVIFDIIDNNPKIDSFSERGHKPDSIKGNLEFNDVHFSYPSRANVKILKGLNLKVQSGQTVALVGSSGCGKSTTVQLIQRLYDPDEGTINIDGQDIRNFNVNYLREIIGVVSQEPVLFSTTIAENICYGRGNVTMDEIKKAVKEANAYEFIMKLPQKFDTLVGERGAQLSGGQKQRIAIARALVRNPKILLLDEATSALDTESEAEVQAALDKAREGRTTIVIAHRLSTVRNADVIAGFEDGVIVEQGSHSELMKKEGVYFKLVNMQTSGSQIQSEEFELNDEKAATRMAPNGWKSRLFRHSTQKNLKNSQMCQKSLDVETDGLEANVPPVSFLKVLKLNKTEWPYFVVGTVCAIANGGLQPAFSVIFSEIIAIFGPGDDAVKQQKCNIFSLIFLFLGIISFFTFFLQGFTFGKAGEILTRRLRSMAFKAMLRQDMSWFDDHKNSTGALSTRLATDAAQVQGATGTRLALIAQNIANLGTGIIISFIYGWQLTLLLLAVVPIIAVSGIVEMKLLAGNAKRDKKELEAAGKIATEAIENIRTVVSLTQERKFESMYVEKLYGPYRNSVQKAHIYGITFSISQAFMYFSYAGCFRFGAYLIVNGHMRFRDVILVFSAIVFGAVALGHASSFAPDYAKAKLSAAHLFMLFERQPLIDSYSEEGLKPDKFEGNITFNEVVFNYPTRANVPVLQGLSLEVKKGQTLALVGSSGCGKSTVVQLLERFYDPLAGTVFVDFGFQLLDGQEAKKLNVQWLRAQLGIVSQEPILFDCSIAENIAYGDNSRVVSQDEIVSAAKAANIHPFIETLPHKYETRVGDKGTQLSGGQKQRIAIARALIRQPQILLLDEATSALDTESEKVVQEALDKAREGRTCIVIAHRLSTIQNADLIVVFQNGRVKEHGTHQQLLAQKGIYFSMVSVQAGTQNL

## O=C(Cc1ccc(F)cc1)Nn1c(C2CC2)nc2cc(F)ccc2c1=O [PF‐04895162, N‐(2‐cyclopropyl‐7‐fluoro‐4‐oxoquinazolin‐3(4H)‐yl)‐2‐(4‐fluorophenyl)ethanamide]
[1]; 30 mg/kg/day, females
  vomitus, incidence: 1/5
[1]; 30 mg/kg/day, males
  vomitus, incidence: 1/5
[1]; 100 mg/kg/day, 28 days
  parent AUC24 at the end of the study: mild autoinduction of metabolism
[1]; 100 mg/kg/day, females
  ataxia, incidence: 2/5
  body tremors, incidence: 3/5
  dilated pupils, incidence: 4/5
  hunched posture, incidence: 3/5
  squinting, incidence: 1/5
  vomitus, incidence: 2/5
[1]; 100 mg/kg/day, males
  ataxia, incidence: 2/5
  body tremors, incidence: 4/5
  dilated pupils, incidence: 4/5
  hunched posture, incidence: 3/5
  hypoactivity, incidence: 2/5
  vomitus, incidence: 1/5
[1]; 3, 10, 30, 100 mg/kg/day, 28 days
  survival: All animals survived to their scheduled termination
[1]; 30 and 100 mg/kg/day, 1, 2, and/or 4 hours post-dose, first day of treatment
  mean body (rectal) temperatures: larger decreases in mean body (rectal) temperatures
[1]; 28 days, up to 100 mg/kg/day
  hematology, coagulation, clinical chemistry, macroscopic and microscopic pathology: No effect of treatment
[2]; Hi5 vesicles, N = 4, geometric mean
  IC50: 106 µM
[2]; initially (single dose)
  ratio of systemic Cmax to BSEP vesicle IC50: 0.12 x
[3]; both sexes, 100 mg/kg/day, studies >1 month in duration, read-out: total Cmax concentrations in the rat (male-female)
  Cmax: 6.9 to 15.1 µM
[3]; female, Day 1, 100 mg/kg/day, read-out: Total Cmax, female rats
  Cmax: 5350 ng/mL
[3]; male, Day 1, 100 mg/kg/day, read-out: Total Cmax, male rats
  Cmax: 2460 ng/mL
[4]; 100 mg/kg
  gross pathology: animals with impacted feces: 1
[4]; 300 mg/kg
  gross pathology: animals with impacted feces: 6
[4]; 30, 100, and 300 mg/kg on Day 1 and 300 mg/kg on Day 7
  body temperature: decreased
[4]; Days 3, 5, and 7 at 30, 100, and 300 mg/kg
  Body weight gain: suppressed
[4]; early in the study, primarily at 300 mg/kg
  clinical signs: tremor, splayed stance, altered gait, piloerection, and mild tremors
[4]
  microscopic changes in liver (and kidneys): no microscopic changes in the liver or kidneys
  ALT: dose-dependent increases in ALT
[4]; listed as PF-04895162
  microscopic changes in liver (and kidneys): no microscopic changes in the liver
[4]; listed as ICA-105665
  ALT: increased in a dose-dependent manner
[5]; [9]
  Clinical findings and body temperature: test article-induced hypothermic condition
  hematology parameters: no adverse test article-related effects
  mortality: All main study animals survived to study termination
[5]; treated males and females
  body weight and food consumption: Decreases in body weight and food consumption
[5]; [10]
  ALT: did not reproduce ALT findings
  liver weight: increased liver weight in female rats
[6]; female, read-out: Total Cmax (mean), female rats
  Cmax: 10300 ng/mL
[6]; male, read-out: Total Cmax (mean), male rats
  Cmax: 7920 ng/mL
[7]
  effect on MDR3 activity: stimulation
[8]
  IC50 at 72 h: ~192 µM
